Reference: patent publication US11202850B2, “Compositions and methods for inhibiting inflammation” (THE UNIVERSITY OF MEMPHIS RESEARCH FOUNDATION, priority 2018, dated 2021)

How the values were obtained:
PAD4 = biological target: T1, PAD4 (Homo sapiens, UniProt Q9UM07); test: PAD4 Inhibitor Screening Assay: Cl-amidine activity after exposure to electrospinning solvent HFP; assay type: biochemical
T1 construct: purchased
From the text: The log transform of molarity against average fluorescent intensity was plotted for each concentration (FIG. 6).
As the concentration of drug increases, the relative fluorescence decreases, signifying an increase in the inhibition of PAD4. […] However, the drug was still active producing a sigmoidal curve similar to that of the HBSS samples.
In addition to determining the activity of Cl—Am, the samples exposed to HFP were used to create a standard curve for quantifying unknown Cl—Am concentrations. The four-parameter logistic regression of the HFP exposed samples (Equation 1, x=logarithmic transform of Cl—Am concentration and y=relative fluorescence) has an R2-value of 0.996, and there is no evidence of an inadequate model from the lack of fit test (p=0.28).
Lower fluorescence indicated greater inhibition of PAD4. No evidence of lack of fit (p=0.28) was found for the four-parameter regression of HFP exposed samples. […] This provided a standard curve for quantifying unknown Cl-amidine from elution studies.

[1] = system: fresh human peripheral blood neutrophils; test: NETosis on Cl-amidine eluting templates in vitro (DAPI/SYTOX Green BG ratio); assay type: cell-based
Experimental: 10 mm diameter punches of the templates (n=4) were placed in a 48-well culture plate and disinfected by UV irradiation. Isolated peripheral neutrophils from whole blood were suspended in sterile HBSS and used to seed templates with 600,000 cells in 250 μL of HBSS and cultured for 3 and 6 hours under standard conditions. Cellularized templates were then fixed in 10% buffered formalin and fluorescence quantification of NETs was carried out. Templates with 100 nM SYTOX Green for extracellular DNA followed by DAPI fixed cell nuclei stain at stock concentration (FIGS. 9A, 9B, 10A, 10B, and 11A). The ratio of DAPI (blue) to SYTOX green (BG ratio) pixels per image using MATLAB 2012a was quantified to determine degree of NETosis (FIGS. 12A and 12B).
Infrared scanning and quantification of citrullinated histone H3 (CitH3) was carried out as follows. Templates were incubated with rabbit anti-human histone H3 (citrulline R2+R8+R17) antibody (ABCAM) followed by IRDye 800CW donkey anti-rabbit secondary antibody. The templates were scanned on the 800-nm channel of the Odyssey CLx Infrared Imaging System (LICOR) to generate full-thickness template fluorescence. Template-bound CitH3 was quantified with standard curve of CitH3 vacuum blotted onto a PVDF membrane. Statistical analysis was carried out as follows. […] Then the plot of relative fluorescence against mass of CitH3 was fit with a linear regression. […]

T1 sequence (Q9UM07 whole entry, species assumed): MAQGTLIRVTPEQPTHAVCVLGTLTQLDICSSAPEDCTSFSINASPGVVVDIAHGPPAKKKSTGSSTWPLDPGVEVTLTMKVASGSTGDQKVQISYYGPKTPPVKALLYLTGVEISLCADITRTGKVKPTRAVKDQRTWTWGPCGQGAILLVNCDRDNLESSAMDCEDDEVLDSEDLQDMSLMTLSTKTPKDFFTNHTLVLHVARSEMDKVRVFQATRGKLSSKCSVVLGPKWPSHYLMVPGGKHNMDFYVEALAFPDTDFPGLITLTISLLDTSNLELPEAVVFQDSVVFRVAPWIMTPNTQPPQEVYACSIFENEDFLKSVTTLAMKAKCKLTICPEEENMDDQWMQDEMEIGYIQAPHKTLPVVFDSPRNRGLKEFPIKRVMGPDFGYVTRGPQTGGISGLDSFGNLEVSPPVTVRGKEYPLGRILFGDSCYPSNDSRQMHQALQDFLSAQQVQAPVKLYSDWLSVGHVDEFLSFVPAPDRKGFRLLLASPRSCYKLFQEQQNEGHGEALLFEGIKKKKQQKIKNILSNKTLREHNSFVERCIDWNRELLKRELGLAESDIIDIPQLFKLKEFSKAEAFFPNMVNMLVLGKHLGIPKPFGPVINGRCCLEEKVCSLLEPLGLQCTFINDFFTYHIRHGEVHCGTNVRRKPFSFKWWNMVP

- lowest concentration inhibiting PAD4 activity (PAD4; after exposure to HFP): 1.2 µM
- efficacy after exposure to solvent HFP (PAD4; sigmoidal curve similar to HBSS samples): retained efficacy after exposure to HFP
SMILES: N=C(CCl)NCCCC(NC(=O)c1ccccc1)C(N)=O [Cl-amidine, N-α-benzoyl-N5-(2-chloro-1-iminoethyl)-L-ornithine amide]
- activity against PAD4 after exposure to HFP versus HBSS samples (PAD4; at two concentrations, 5.9 and 29.5 μM (p<0.0001)): significantly reduced its activity against PAD4
- effect of eluted Cl-amidine on NETosis ([1]; on large diameter templates, 3 hours): opposite trend
- effect of eluted Cl-amidine on NETosis ([1]; on small diameter templates, 3 hours (p<0.05)): significantly attenuated NETosis
